# Assay results taken from patent publication US8846933B2, “N-link hydroxamic acid derivatives useful as antibacterial agents” (Pfizer Inc., priority 2009, dated 2014).
# How the values were obtained:
# [1] = system: Escherichia coli EC-1: VOGEL, mouse virulent; assay: MIC determination (CLSI), strain EC-1; assay type: cell-based; conditions: strain EC-1; unit assumed
# In short: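 The mouse-virulent VOGEL isolate of E. coli, EC-1, served as test organism. Minimum inhibitory concentration was measured by CLSI dilution methodology (M7-A7; M100-S18 standards).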
# [2] = system: Pseudomonas aeruginosa UI-18: Wild-type (PA-7); assay: MIC determination (CLSI), strain PA-7; assay type: cell-based; conditions: strain PA-7; unit assumed
# In short: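 Strain tested was P. aeruginosa UI-18, a wild-type isolate labelled PA-7. Minimum inhibitory concentrations followed CLSI dilution methodology for aerobically growing bacteria (M7-A7, M100-S18).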
Compound,EC-1 (MIC) [1],PA-7 (MIC) [2]
"CC(CCn1ccc(-c2ccc3cc(O)ccc3c2)cc1=O)(C(=O)NO)S(C)(=O)=O (centres unmarked) [Example 258, N-hydroxy-4-[4-(6-hydroxy-2-naphthyl)-2-oxopyridin-1(2H)-yl]-2-methyl-2-(methylsulfonyl)butanamide]",1 µg/mL,2 µg/mL
"CC(CCn1ccc(-c2ccc3cnccc3c2)cc1=O)(C(=O)NO)S(C)(=O)=O (centres unmarked) [Example 260, N-hydroxy-4-(4-isoquinolin-6-yl-2-oxopyridin-1(2H)-yl)-2-methyl-2-(methylsulfonyl)butanamide]",4 µg/mL,4 µg/mL
"CC(CCn1ccc(-c2ccc3ccncc3c2)cc1=O)(C(=O)NO)S(C)(=O)=O (centres unmarked) [Example 261, N-hydroxy-4-(4-isoquinolin-7-yl-2-oxopyridin-1(2H)-yl)-2-methyl-2-(methylsulfonyl)butanamide]",8 µg/mL,4 µg/mL
"CC(C)(O)Cc1cccc(-c2ccn(CCC(C)(C(=O)NO)S(C)(=O)=O)c(=O)c2)c1 (centres unmarked) [Example 262, N-hydroxy-4-{4-[3-(2-hydroxy-2-methylpropyl)phenyl]-2-oxopyridin-1(2H)-yl}-2-methyl-2-(methylsulfonyl)butanamide]",64 µg/mL,> 64 µg/mL
"CC(CCn1ccc(-c2ccc3[nH]cc(CCO)c3c2)cc1=O)(C(=O)NO)S(C)(=O)=O (centres unmarked) [Example 263, N-hydroxy-4-{4-[3-(2-hydroxyethyl)-1H-indol-5-yl]-2-oxopyridin-1(2H)-yl}-2-methyl-2-(methylsulfonyl)butanamide]",8 µg/mL,> 64 µg/mL
"Cc1cccc(-c2ccn(CCC(C)(C(=O)NO)S(C)(=O)=O)c(=O)c2)c1F (centres unmarked) [Example 264, 4-[4-(2-fluoro-3-methylphenyl)-2-oxopyridin-1(2H)-yl]-N-hydroxy-2-methyl-2-(methylsulfonyl)butanamide]",0.5 µg/mL,0.5 µg/mL
"CC(CCn1ccc(-c2ccc3c(ccn3CCO)c2)cc1=O)(C(=O)NO)S(C)(=O)=O (centres unmarked) [Example 265, N-hydroxy-4-{4-[1-(2-hydroxyethyl)-1H-indol-5-yl]-2-oxopyridin-1(2H)-yl}-2-methyl-2-(methylsulfonyl)butanamide]",4 µg/mL,16 µg/mL
"Cc1c(Cl)cccc1-c1ccn(CCC(C)(C(=O)NO)S(C)(=O)=O)c(=O)c1 (centres unmarked) [Example 266, 4-[4-(3-chloro-2-methylphenyl)-2-oxopyridin-1(2H)-yl]-N-hydroxy-2-methyl-2-(methylsulfonyl)butanamide]",4 µg/mL,4 µg/mL
"CC(CCn1ccc(-c2ccc3c(ccn3CCCO)c2)cc1=O)(C(=O)NO)S(C)(=O)=O (centres unmarked) [Example 267, N-hydroxy-4-{4-[1-(3-hydroxypropyl)-1H-indol-5-yl]-2-oxopyridin-1(2H)-yl}-2-methyl-2-(methylsulfonyl)butanamide]",2 µg/mL,8 µg/mL
"CC(CCn1ccc(-c2ccc(OCc3ccncc3)cc2)cc1=O)(C(=O)NO)S(C)(=O)=O (centres unmarked) [Example 268, N-hydroxy-2-methyl-2-(methylsulfonyl)-4-{2-oxo-4-[4-(pyridin-4-ylmethoxy)phenyl]pyridin-1(2H)-yl}butanamide]",1 µg/mL,2 µg/mL
"CC(CCn1ccc(-c2ccc(OCc3cccnc3)cc2)cc1=O)(C(=O)NO)S(C)(=O)=O (centres unmarked) [Example 269, N-hydroxy-2-methyl-2-(methylsulfonyl)-4-{2-oxo-4-[4-(pyridin-3-ylmethoxy)phenyl]pyridin-1(2H)-yl}butanamide]",0.5 µg/mL,2 µg/mL
"CC(CCn1ccc(-c2ccc(OCc3ccccn3)cc2)cc1=O)(C(=O)NO)S(C)(=O)=O (centres unmarked) [Example 270, N-hydroxy-2-methyl-2-(methylsulfonyl)-4-{2-oxo-4-[4-(pyridin-2-ylmethoxy)phenyl]pyridin-1(2H)-yl}butanamide]",1 µg/mL,2 µg/mL
"CC(CCn1ccc(-c2ccc(OCCc3cccnc3)cc2)cc1=O)(C(=O)NO)S(C)(=O)=O (centres unmarked) [Example 271, N-hydroxy-2-methyl-2-(methylsulfonyl)-4-{2-oxo-4-[4-(2-pyridin-3-ylethoxy)phenyl]pyridin-1(2H)-yl}butanamide]",0.25 µg/mL,2 µg/mL
"CC(CCn1ccc(-c2ccc(OCCc3ccccn3)cc2)cc1=O)(C(=O)NO)S(C)(=O)=O (centres unmarked) [Example 272, N-hydroxy-2-methyl-2-(methylsulfonyl)-4-{2-oxo-4-[4-(2-pyridin-2-ylethoxy)phenyl]pyridin-1(2H)-yl}butanamide]",0.5 µg/mL,2 µg/mL
"CC(CCn1ccc(-c2ccc3cc(OCCO)ccc3c2)cc1=O)(C(=O)NO)S(C)(=O)=O (centres unmarked) [Example 273, N-hydroxy-4-{4-[6-(2-hydroxyethoxy)-2-naphthyl]-2-oxopyridin-1(2H)-yl}-2-methyl-2-(methylsulfonyl)butanamide]",0.5 µg/mL,4 µg/mL
"CC(CCn1ccc(-c2ccc3cc(OCCCO)ccc3c2)cc1=O)(C(=O)NO)S(C)(=O)=O (centres unmarked) [Example 274, N-hydroxy-4-{4-[6-(3-hydroxypropoxy)-2-naphthyl]-2-oxopyridin-1(2H)-yl}-2-methyl-2-(methylsulfonyl)butanamide]",0.25 µg/mL,2 µg/mL

Compound,EC-1 (MIC) [1],PA-7 (MIC) [2]
"CC(CCn1ccc(-c2ccc(OCCCCS(N)(=O)=O)cc2Cl)cc1=O)(C(=O)NO)S(C)(=O)=O (centres unmarked) [Example 276, 4-[4-{4-[4-(aminosulfonyl)butoxy]-2-chlorophenyl}-2-oxopyridin-1(2H)-yl]-N-hydroxy-2-methyl-2-(methylsulfonyl)butanamide]",16 µg/mL,32 µg/mL
"CC(CCn1ccc(-c2ccc(OCCCCCN3CCOCC3)cc2)cc1=O)(C(=O)NO)S(C)(=O)=O (centres unmarked) [Example 277, N-hydroxy-2-methyl-2-(methylsulfonyl)-4-[4-{4-[(5-morpholin-4-ylpentyl)oxy]phenyl}-2-oxopyridin-1(2H)-yl]butanamide]",1 µg/mL,4 µg/mL
"CC(CCn1ccc(-c2ccc(-c3ccc(S(N)(=O)=O)cc3)cc2)cc1=O)(C(=O)NO)S(C)(=O)=O (centres unmarked) [Example 278, 4-{4-[4′-(aminosulfonyl)biphenyl-4-yl]-2-oxopyridin-1(2H)-yl}-N-hydroxy-2-methyl-2-(methylsulfonyl)butanamide]",2 µg/mL,16 µg/mL
"C[C@@](CCn1ccc(-c2ccc(OCCCCO)cc2)cc1=O)(C(=O)NO)S(C)(=O)=O [Example 279, (2R)-N-hydroxy-4-{4-[4-(4-hydroxybutoxy)phenyl]-2-oxopyridin-1(2H)-yl}-2-methyl-2-(methylsulfonyl)butanamide]",0.5 µg/mL,1 µg/mL
"C[C@@](CCn1ccc(-c2ccc(OCCCCCO)cc2)cc1=O)(C(=O)NO)S(C)(=O)=O [Example 280, (2R)-N-hydroxy-4-[4-{4-[(5-hydroxypentyl)oxy]phenyl}-2-oxopyridin-1(2H)-yl]-2-methyl-2-(methylsulfonyl)butanamide]",0.25 µg/mL,0.5 µg/mL
"CC(CCn1ccc(-c2ccc(-c3ccc(F)cc3)nc2)cc1=O)(C(=O)NO)S(C)(=O)=O (centres unmarked) [Example 281, 4-[6-(4-fluorophenyl)-2′-oxo-3,4′-bipyridin-1′(2′H)-yl]-N-hydroxy-2-methyl-2-(methylsulfonyl)butanamide]",0.5 µg/mL,8 µg/mL
"CC(CCn1ccc(-c2ccc(Br)c(F)c2)cc1=O)(C(=O)NO)S(C)(=O)=O (centres unmarked) [Example 282, 4-[4-(4-bromo-3-fluorophenyl)-2-oxopyridin-1(2H)-yl]-N-hydroxy-2-methyl-2-(methylsulfonyl)butanamide]",0.5 µg/mL,1 µg/mL
"CC(CCn1ccc(-c2ccc(Br)cc2F)cc1=O)(C(=O)NO)S(C)(=O)=O (centres unmarked) [Example 283, 4-[4-(4-bromo-2-fluorophenyl)-2-oxopyridin-1(2H)-yl]-N-hydroxy-2-methyl-2-(methylsulfonyl)butanamide]",0.25 µg/mL,1 µg/mL
"Cc1cn(CCC(C)(C(=O)NO)S(C)(=O)=O)c(=O)cc1-c1ccccc1 (centres unmarked) [Example 284, N-hydroxy-2-methyl-4-(5-methyl-2-oxo-4-phenylpyridin-1(2H)-yl)-2-(methylsulfonyl)butanamide]",32 µg/mL,64 µg/mL
"COc1ccc(-c2ccn(CC[C@](C)(C(=O)NO)S(C)(=O)=O)c(=O)c2)cn1 [Example 285, (2R)-N-hydroxy-4-(6-methoxy-2′-oxo-3,4′-bipyridin-1′(2′H)-yl)-2-methyl-2-(methylsulfonyl)butanamide]",4 µg/mL,4 µg/mL
Cc1cc(-c2cc(CO)no2)ccc1-c1ccn(CCC(C)(C(=O)NO)S(C)(=O)=O)c(=O)c1 (centres unmarked) [Example 286],16 µg/mL,16 µg/mL
"CC(CCn1ccc(-c2ccc(Oc3cccnc3)cc2)cc1=O)(C(=O)NO)S(C)(=O)=O (centres unmarked) [Example 287, N-hydroxy-2-methyl-2-(methylsulfonyl)-4-{2-oxo-4-[4-(pyridin-3-yloxy)phenyl]pyridin-1(2H)-yl}butanamide]",0.5 µg/mL,4 µg/mL
"COc1ccc2ccc(-c3ccn(CCC(C)(C(=O)NO)S(C)(=O)=O)c(=O)c3)cc2c1 (centres unmarked) [Example 288, N-hydroxy-4-[4-(7-methoxy-2-naphthyl)-2-oxopyridin-1(2H)-yl]-2-methyl-2-(methylsulfonyl)butanamide]",0.125 µg/mL,4 µg/mL
"Cc1cc(OCCCn2cncn2)ccc1-c1ccn(CCC(C)(C(=O)NO)S(C)(=O)=O)c(=O)c1 (centres unmarked) [Example 289, N-hydroxy-2-methyl-2-(methylsulfonyl)-4-[4-{2-methyl-4-[3-(1H-1,2,4-triazol-1-yl)propoxy]phenyl}-2-oxopyridin-1(2H)-yl]butanamide]",32 µg/mL,32 µg/mL
"CC(CCn1ccc(-c2ccc(OCCCn3cncn3)c(Cl)c2)cc1=O)(C(=O)NO)S(C)(=O)=O (centres unmarked) [Example 290, 4-[4-{3-chloro-4-[3-(1H-1,2,4-triazol-1-yl)propoxy]phenyl}-2-oxopyridin-1(2H)-yl]-N-hydroxy-2-methyl-2-(methylsulfonyl)butanamide]",16 µg/mL,16 µg/mL
